According to paper PMC8996149 (Acta Crystallographica. Section F, Structural Biology …, 2022):

B1: Alpine soil metagenome-derived salicylaldehyde dehydrogenase (SALDAP) (enzyme)
chain: MRGLTVNFERINPMTNQTASTAKAMTAAEARAVADRAAAGFAGWSVLGPNARRAVLMKAAAALEARKDDFVQAMMAEIGATAGWAMFNLMLAASMIREAAALTTQIGGEVIPSDKPGCLALALREPVGVVLGIAPWNAPIILGVRAIAVPLACGNAVILKASEICPRTHGLIIESFAEAGFPEGVVNVVTNAPQDAGEVVGALIDHPAVKRINFTGSTGVGRIIAKRAAEHLKPCLLELGGKAPLVVLDDADLDEAAKAAAFGAFMNQGQICMSTERIIVVEAIAAEFTRRFAAKAQSMATGDPREGKTPLGAVVDRKTVDHVNTLIDDATAKGARIIAGGKGDSVLMSATVVDGVTAAMKLYRDESFGPIVGIIRAKDEADAVRLANDSEYGLAAAVFTRDTARGLRVARQIRSGICHINGPTVHDEAQMPFGGVGASGYGRFGGKAGIDQFTELRWITMETQPGHFPI
notes: salicylaldehyde dehydrogenase SALDAP (EC 1.2.1.65) from an alphaproteobacterium, gene found by gene-targeted assembly in an Alpine soil metagenome; The pLATE51 vector adds the N-terminal 6×His tag; also called 6×His-SALDAP; 6×His SALDAP; not shown: 6×His, N-terminal, kept

Key:
[1] = molecular target: T1, SALDAP (Alpine soil metagenome-derived salicylaldehyde dehydrogenase) (soil metagenome, UniProt Z9QUQ6R3A5); test: X-ray crystal structure, […] Å; format: binding; details: active site, one ligand per monomer; ligand identity chosen by best fit to electron density (putative), no ligand added to the drop is told; pH 4.6
T1 construct: pLATE51, N-terminal 6xHis tag (no cleavage told), E. coli BL21 (DE3), purified; homodimer about 115 kDa; EC 1.2.1.65

[2] = molecular target: T1, SALDAP (Alpine soil metagenome-derived salicylaldehyde dehydrogenase); test: differential scanning fluorimetry (SYPRO Orange); format: binding; details: 2 mM ligand, 6 µM enzyme, 50 mM HEPES pH 7.4; no NAD+; untreated enzyme Tm 67.9 ± 0.17 °C
From the text: differential scanning fluorimetry (SYPRO Orange) on SALDAP (Alpine soil metagenome-derived salicylaldehyde dehydrogenase)

[3] = molecular target: the molecule itself; test: SEC; analytical gel filtration on Sephacryl S-300 (K 9/30 column), 50 mM Tris-HCl, 17 mM Tris base, 150 mM NaCl pH 7.4, calibrated with standard proteins; mass estimated from the elution volume

Molecule | X-ray crystal structure, 1.9 Å [1] | Melting temperature (T m) (°C) [2] [°C] | stoichiometry N [3]
O=C(O)c1ccc(O)c(O)c1 [protocatechuic acid] | protocatechuic acid (PCA) was chosen as the ligand bound to the active site | 69.2 ± 0.25 | –
B1 | – | – | 2
